Tested on: P12-Ichikawa
Assay: cell viability relative to DMSO control; higher = less cytotoxic
Details: 48 h
How it was run: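 Viability is expressed as a percentage of DMSO wells within each plate, and cell-free wells serve as background. Seeding densities in the 1536-well plates (5 μl) were 500 cells/well for NOMO1 or SEM leukemia cells and 1000 cells/well for P12-Ichikawa. Each line was adapted for at least four passages in each medium. Library compounds in DMSO were pin-dosed at 47 μM to 0.79 nM (11 points, threefold), and CellTiter-Glo One luminescence was read after 48 h at 37°C.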

[1] = HPLM + 10% dialyzed FBS, 0.000781 µM
[2] = HPLM + 10% dialyzed FBS, 0.00234 µM
[3] = HPLM + 10% dialyzed FBS, 0.00702 µM
[4] = HPLM + 10% dialyzed FBS, 0.0211 µM
[5] = HPLM + 10% dialyzed FBS, 0.0632 µM
[6] = HPLM + 10% dialyzed FBS, 0.19 µM
[7] = HPLM + 10% dialyzed FBS, 0.569 µM
[8] = HPLM + 10% dialyzed FBS, 1.71 µM
[9] = HPLM + 10% dialyzed FBS, 5.12 µM
[10] = HPLM + 10% dialyzed FBS, 15.4 µM
[11] = HPLM + 10% dialyzed FBS, 46.1 µM
[12] = RPMI 5 mM glucose + 10% FBS, 0.000781 µM
[13] = RPMI 5 mM glucose + 10% FBS, 0.00234 µM
[14] = RPMI 5 mM glucose + 10% FBS, 0.00702 µM
[15] = RPMI 5 mM glucose + 10% FBS, 0.0211 µM
[16] = RPMI 5 mM glucose + 10% FBS, 0.0632 µM
[17] = RPMI 5 mM glucose + 10% FBS, 0.19 µM
[18] = RPMI 5 mM glucose + 10% FBS, 0.569 µM
[19] = RPMI 5 mM glucose + 10% FBS, 1.71 µM
[20] = RPMI 5 mM glucose + 10% FBS, 5.12 µM
[21] = RPMI 5 mM glucose + 10% FBS, 15.4 µM
[22] = RPMI 5 mM glucose + 10% FBS, 46.1 µM
[23] = RPMI 5 mM glucose + 10% dialyzed FBS, 0.000781 µM
[24] = RPMI 5 mM glucose + 10% dialyzed FBS, 0.00234 µM
[25] = RPMI 5 mM glucose + 10% dialyzed FBS, 0.00702 µM
[26] = RPMI 5 mM glucose + 10% dialyzed FBS, 0.0211 µM
[27] = RPMI 5 mM glucose + 10% dialyzed FBS, 0.0632 µM
[28] = RPMI 5 mM glucose + 10% dialyzed FBS, 0.19 µM
[29] = RPMI 5 mM glucose + 10% dialyzed FBS, 0.569 µM
[30] = RPMI 5 mM glucose + 10% dialyzed FBS, 1.71 µM
[31] = RPMI 5 mM glucose + 10% dialyzed FBS, 5.12 µM
[32] = RPMI 5 mM glucose + 10% dialyzed FBS, 15.4 µM
[33] = RPMI 5 mM glucose + 10% dialyzed FBS, 46.1 µM

SMILES | cell viability [1] | cell viability [2] | cell viability [3] | cell viability [4] | cell viability [5] | cell viability [6] | cell viability [7] | cell viability [8] | cell viability [9] | cell viability [10] | cell viability [11] | cell viability [12] | cell viability [13] | cell viability [14] | cell viability [15] | cell viability [16] | cell viability [17] | cell viability [18] | cell viability [19] | cell viability [20] | cell viability [21] | cell viability [22] | cell viability [23] | cell viability [24] | cell viability [25] | cell viability [26] | cell viability [27] | cell viability [28] | cell viability [29] | cell viability [30] | cell viability [31] | cell viability [32] | cell viability [33]
O=c1[nH]c(=O)n([C@H]2C[C@H](O)[C@@H](CO)O2)cc1/C=C/Br | 103% | 126% | 105% | 115% | 102% | 61.2% | 60.8% | 70% | 75.8% | 61.4% | 47.8% | 97.6% | 107% | 103% | 103% | 105% | 110% | 108% | 106% | 107% | 110% | 106% | 92.6% | 104% | 109% | 118% | 112% | 106% | 103% | 108% | 108% | 102% | 100%
N#CCNC(=O)c1ccc(-c2ccnc(Nc3ccc(N4CCOCC4)cc3)n2)cc1 | 98.6% | 108% | 118% | 114% | 110% | 110% | 98.8% | 111% | 111% | 77.6% | 34% | 97.9% | 102% | 120% | 115% | 111% | 109% | 95.6% | 108% | 102% | 65.6% | 34% | 115% | 103% | 109% | 113% | 109% | 109% | 99.5% | 98.2% | 97.6% | 70.8% | 25.3%
O=C(Nc1cccc(C(F)(F)F)c1)Nc1cc([S+](=O)([O-])NC2CC2)ccc1-c1ccsc1 | 127% | 109% | 115% | 111% | 112% | 114% | 110% | 110% | 108% | 104% | 76.9% | 120% | 118% | 119% | 112% | 123% | 118% | 116% | 119% | 112% | 110% | 69.8% | 121% | 116% | 107% | 121% | 117% | 119% | 105% | 94.1% | 107% | 103% | 50.1%
CCN1CCN(c2ccc(Nc3cc(N(C)C(=O)Nc4c(Cl)c(OC)cc(OC)c4Cl)ncn3)cc2)CC1 | 107% | 109% | 103% | 108% | 106% | 97.8% | 97.4% | 105% | 77.7% | 73.3% | 35.3% | 115% | 114% | 119% | 124% | 118% | 118% | 113% | 115% | 86% | 76.7% | 47.6% | 114% | 112% | 108% | 124% | 114% | 126% | 111% | 110% | 76.8% | 66.8% | 53.2%
O=C1c2ccccc2-[n+]2ccc3c([nH]c4ccccc43)c21 | 101% | 108% | 112% | 105% | 105% | 106% | 101% | 105% | 95.4% | 2.96% | 3.56% | 98.1% | 106% | 105% | 114% | 104% | 107% | 107% | 112% | 101% | 2.99% | 2.29% | 102% | 115% | 111% | 108% | 107% | 111% | 100% | 113% | 107% | 3.39% | 2.85%
